The results in this text go back to patent US7267670B2, “Reinforced urethral suppository” (priority 2001, dated 2007).

The data set concerns over active bladder. As to conditions: oral, 5 mg pills three times per day.

Procedure: Their doctor prescribes an anti-cholinergic agent, oxybutynin chloride, taken orally three times per day in 5 mg pills.
Alternatively, their doctor prescribes an oxybutynin urethral suppository of the invention. Before leaving home, they open the individually wrapped suppository, grasping it by the handle; they insert the meltable portion, containing up to 5 mg of oxybutynin chloride, into their urethra. […] If necessary, the person can remove the remaining portions of the suppository and insert a new suppository to prevent uncontrolled voiding episodes.

Take `CCN(CC)CC#CCOC(=O)C(O)(c1ccccc1)C1CCCCC1` (centres unmarked) [oxybutynin chloride]: the “effect on uncontrolled voiding episodes” value (patient one) is recorded as “eliminates the uncontrolled voiding episodes”. Also, under “patient two”, the side effects entry is “severe dry mouth and dizziness”.
